Source: US12522877B2, “Early detection of drug-resistant mycobacterium tuberculosis” (The Translational Genomics Research Institute, priority 2020, dated 2026)
Entries after “also recorded” stand apart in the source; their conditions may differ.

Assays:
M. tuberculosis isolates [1] = test system: M. tuberculosis isolates; parameters: species or system Mycobacterium tuberculosis
M. tuberculosis isolates [2] = type: cell-based, Mycobacterium tuberculosis
M. tuberculosis isolates [3] = type: cell-based, Mycobacterium tuberculosis; remark: listed apart in the source

Structure (SMILES)	GenoType MTBDRplus (M. tuberculosis isolates [1])	Genotype MTBDRplus result (M. tuberculosis isolates [1])	Phenotypic susceptibility to bedaquiline (M. tuberculosis isolates [2])	patients phenotypically and genotypically resistant to bedaquiline (M. tuberculosis isolates [3]) [%]
NNC(=O)c1ccncc1 [Isoniazid]	R	low-level isoniazid resistance		
CO[C@H]1/C=C/O[C@@]2(C)Oc3c(C)c(O)c4c(O)c(c(/C=N/N5CCN(C)CC5)c(O)c4c3C2=O)NC(=O)/C(C)=C\C=C\[C@H](C)[C@H](O)[C@@H](C)[C@@H](O)[C@@H](C)[C@H](OC(C)=O)[C@@H]1C [Rifampicin]	R			
COc1nc2ccc(Br)cc2cc1[C@@H](c1ccccc1)[C@@](O)(CCN(C)C)c1cccc2ccccc12 [bedaquiline]			phenotypically susceptible; also recorded: phenotypically resistant	47
